We go through 29 compounds from patent publication US20150258101A1 (Proximagen Limited, priority 2014, published 2015).

For assay [1], the target named is T1, purified recombinantly expressed human SSAO (Homo sapiens, UniProt Q16853).
T1 construct: made in house
T1 sequence (Q16853 1-763): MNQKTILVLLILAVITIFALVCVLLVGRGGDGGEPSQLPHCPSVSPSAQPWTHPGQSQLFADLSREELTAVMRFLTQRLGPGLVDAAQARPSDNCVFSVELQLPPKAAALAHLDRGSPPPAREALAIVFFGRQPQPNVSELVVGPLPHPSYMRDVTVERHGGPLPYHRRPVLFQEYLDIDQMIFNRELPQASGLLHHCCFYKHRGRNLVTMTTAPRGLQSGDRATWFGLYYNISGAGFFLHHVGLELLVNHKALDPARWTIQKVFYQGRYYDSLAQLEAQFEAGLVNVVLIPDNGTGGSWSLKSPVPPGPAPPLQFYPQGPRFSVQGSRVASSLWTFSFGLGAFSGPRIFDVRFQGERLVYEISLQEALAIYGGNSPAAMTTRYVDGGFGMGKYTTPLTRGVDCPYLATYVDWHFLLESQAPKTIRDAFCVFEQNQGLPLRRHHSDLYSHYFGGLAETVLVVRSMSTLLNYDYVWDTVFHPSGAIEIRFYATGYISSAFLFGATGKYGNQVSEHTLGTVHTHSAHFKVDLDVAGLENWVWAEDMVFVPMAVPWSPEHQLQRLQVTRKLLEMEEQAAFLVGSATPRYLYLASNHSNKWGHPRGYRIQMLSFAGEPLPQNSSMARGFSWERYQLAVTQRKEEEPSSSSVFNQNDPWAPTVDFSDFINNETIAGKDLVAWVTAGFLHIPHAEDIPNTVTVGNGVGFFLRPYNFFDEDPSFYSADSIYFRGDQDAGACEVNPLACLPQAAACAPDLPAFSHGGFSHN
The assay is described as follows: SSAO enzyme inhibition assay (benzylamine substrate; hydrogen peroxide/HRP-coupled or 14C aldehyde detection). Conditions: SSAO inhibitory activity, RT. The assay is classed as biochemical. The method, boiled down:
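IC50 values came from a four-parameter logistic fit of % signal decrease versus DMSO control, with no-enzyme background subtracted. Two read-outs were used with human recombinant SSAO after ~15 min compound pre-incubation at RT. In the H2O2/HRP-Amplex read-out, enzyme was 1 ug/ml and benzylamine 100 uM (pH 7.4 phosphate), with resorufin fluorescence followed 1-2 h. In the 14C-benzaldehyde read-out (PBS), enzyme was 10 ug/ml and benzylamine 40 uM, run 1 h then acid-stopped.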

The target in assay [2] is T2, human ether a go-go related gene (hERG) K+ channel (Homo sapiens, UniProt Q12809).
T2 construct: a Chinese Hamster Lung cell line stably expressing the full length hERG channel; expressed in transfected cells; host or cells: Chinese Hamster Lung cell line
T2 sequence (Q12809 whole entry): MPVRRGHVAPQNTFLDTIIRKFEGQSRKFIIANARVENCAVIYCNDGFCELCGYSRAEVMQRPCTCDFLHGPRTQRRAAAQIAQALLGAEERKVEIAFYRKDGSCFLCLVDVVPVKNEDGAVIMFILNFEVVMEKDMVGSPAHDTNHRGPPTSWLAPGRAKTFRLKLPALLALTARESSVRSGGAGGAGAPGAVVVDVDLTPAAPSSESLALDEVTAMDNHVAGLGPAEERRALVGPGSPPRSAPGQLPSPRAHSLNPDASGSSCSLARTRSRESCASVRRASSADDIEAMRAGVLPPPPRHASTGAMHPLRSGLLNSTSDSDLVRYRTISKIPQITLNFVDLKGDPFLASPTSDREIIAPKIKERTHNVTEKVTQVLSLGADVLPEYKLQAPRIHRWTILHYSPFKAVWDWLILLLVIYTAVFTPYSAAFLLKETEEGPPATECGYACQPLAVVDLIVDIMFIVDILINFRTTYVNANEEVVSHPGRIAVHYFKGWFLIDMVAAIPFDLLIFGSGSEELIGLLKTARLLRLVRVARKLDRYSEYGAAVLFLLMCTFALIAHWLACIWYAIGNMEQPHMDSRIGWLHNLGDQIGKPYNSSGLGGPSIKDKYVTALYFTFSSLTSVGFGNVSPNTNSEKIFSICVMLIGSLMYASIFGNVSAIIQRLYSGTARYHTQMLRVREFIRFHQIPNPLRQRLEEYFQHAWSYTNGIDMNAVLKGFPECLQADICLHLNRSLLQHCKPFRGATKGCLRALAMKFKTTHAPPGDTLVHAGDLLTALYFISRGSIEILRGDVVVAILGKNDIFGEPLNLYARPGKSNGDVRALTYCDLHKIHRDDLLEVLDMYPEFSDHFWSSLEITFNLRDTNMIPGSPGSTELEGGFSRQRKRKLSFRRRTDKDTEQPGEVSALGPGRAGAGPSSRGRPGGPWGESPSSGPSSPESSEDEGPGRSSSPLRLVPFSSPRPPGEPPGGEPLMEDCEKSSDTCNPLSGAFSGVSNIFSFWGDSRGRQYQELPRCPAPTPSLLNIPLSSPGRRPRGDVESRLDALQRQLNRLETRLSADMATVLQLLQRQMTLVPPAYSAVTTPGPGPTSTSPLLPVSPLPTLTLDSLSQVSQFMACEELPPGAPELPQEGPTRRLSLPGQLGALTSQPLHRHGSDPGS
The assay is described as follows: hERG assay, IonWorks patch clamp electrophysiology. The assay is classed as cell-based. The conditions noted are these: Chinese Hamster Lung cell line stably expressing hERG; max assay concentration 11 uM. Here is the method: Compounds of the invention were tested for inhibition of the human ether a go-go related gene (hERG) K^+ channel using IonWorks patch clamp electrophysiology. 8 Point concentration-response curves were generated on two occasions using 3-fold serial dilutions from the maximum assay concentration (11 uM). Electrophysiological recordings were made from a Chinese Hamster Lung cell line stably expressing the full length hERG channel. Single cell ion currents were measured in the perforated patch clamp configuration (100 ug/mL amphoterocin) at room temperature using an IonWorks Quattro instrument. The internal solution contained 140 mM KCl, 1 mM MgCl2, 1 mM EGTA and 20 mM HEPES and was buffered to pH 7.3. The external solution contained 138 mM NaCl, 2.7 mM KCl, 0.9 mM CaCl2, 0.5 mM MgCl2, 8 mM Na2HPO4 and 1.5 mM KH2PO4, and was buffered to pH 7.3. […] This sequence was repeated 5 times at a frequency of 0.25 Hz. Currents were measured from the tail step at the 5th pulse, and referenced to the holding current. Compounds were incubated for 6-7 min prior to a second measurement of the hERG signal using an identical pulse train. […] A control compound (quinidine) was used (see Table 20 below).
On the technique in general: The hERG channel carries a current that helps repolarise heart muscle cells.

Each structure is given as a SMILES string.

As a reminder, the IC50 is the concentration at which inhibition is half-maximal. As to `Fc1cc(Cl)ccc1-n1c(-c2ccc(N3CCOCC3)nc2)nc2ccncc21` [Example 80, 4-{5-[3-(4-Chloro-2-fluorophenyl)-3H-imidazo[4,5-c]pyridin-2-yl]pyridin-2-yl}morpholine], the 50% inhibitory concentration (IC50) in assay [1] is 0.05 to 0.2 µM; in assay [2] it was > 10 µM.
The like results for `CC(=O)NC1CCN(c2ccc(-c3nc4ccncc4n3-c3ccc(Cl)cc3)cn2)CC1` [Example 85, N-(1-{5-[3-(4-Chlorophenyl)-3H-imidazo[4,5-c]pyridin-2-yl]pyridin-2-yl}piperidin-4-yl)acetamide] were, in that order, < 0.05 µM and > 10 µM.
The like results for `O=c1cc(-c2cc3ccncc3n2-c2ccc(Cl)cc2)ccn1C1CC1` [Example 138, 4-[1-(4-Chlorophenyl)-1H-pyrrolo[2,3-c]pyridin-2-yl]-1-cyclopropyl-1,2-dihydropyridin-2-one] were, in that order, < 0.05 µM and 1 to 10 µM.
The like results for `Clc1ccc(-n2c(-c3ccncc3)nc3ccncc32)cc1` [Example 2, 4-[3-(4-Chlorophenyl)-3H-imidazo[4,5-c]pyridin-2-yl] pyridine] were, in that order, 0.2 to 1.2 µM and > 10 µM.
As for `Clc1ccc(-n2c(-c3ccc(N4CCOCC4)nc3)nc3ccncc32)cc1` [Example 47, 4-{5-[3-(4-Chlorophenyl)-3H-imidazo[4,5-c]pyridin-2-yl]pyridin-2-yl}morpholine], the half-inhibitory concentration (IC50) was < 0.05 µM in assay [1] and 1 to 10 µM in assay [2].
The like results for `Clc1ccc(-n2c(-c3ccc(N4CCNCC4)nc3)nc3ccncc32)cc1` [Example 50, 1-{5-[3-(4-Chlorophenyl)-3H-imidazo[4,5-c]pyridin-2-yl]pyridin-2-yl}piperazine] were, in that order, < 0.05 µM and > 10 µM.
For `Fc1ccc(-n2c(-c3cnc(NC4CCOCC4)nc3)nc3ccncc32)cc1` [Example 20, 5-[3-(4-Fluorophenyl)-3H-imidazo[4,5-c]pyridin-2-yl]-N-(oxan-4-yl)pyrimidin-2-amine] the same measures were 0.05 to 0.2 µM and > 10 µM.
The like results for `Clc1ccc(-n2c(-c3ccc(N4CCOCC4)nn3)nc3ccncc32)cc1` [Example 4, 4-{6-[3-(4-Chlorophenyl)-3H-imidazo[4,5-c]pyridin-2-yl]pyridazin-3-yl}morpholine] were, in that order, < 0.05 µM and 1 to 10 µM.
Take `c1ccc(-n2c(-c3cnc(N4CCOCC4)nc3)cc3ccncc32)cc1` [Example 131, 4-(5-{1-Phenyl-1H-pyrrolo[2,3-c]pyridin-2-yl}pyrimidin-2-yl)morpholine]: the half-inhibitory concentration (IC50) in assay [2] lay in the range of 1 to 10 µM.
As to `CN1CCN(Cc2cccc(-c3nc4ccncc4n3-c3ccc(Cl)cc3)c2)CC1` [Example 45, 1-({3-[3-(4-Chlorophenyl)-3H-imidazo[4,5-c]pyridin-2-yl]phenyl}methyl)-4-methylpiperazine; formic acid], the concentration for half-maximal inhibition (IC50) in assay [1] was 0.2 to 1.2 µM.
With `Cn1c(-c2cc3ccncc3n2-c2ccc(Cl)cc2)cccc1=O` [Example 145, 6-[1-(4-Chlorophenyl)-1H-pyrrolo[2,3-c]pyridin-2-yl]-1-methyl-1,2-dihydropyridin-2-one], in assay [1], the IC50 is < 0.05 µM.
For the compound `CN1CCN(c2ncc(-c3nc4ccncc4n3-c3ccc(F)cc3)cn2)CC1=O` [Example 40, 4-{5-[3-(4-Fluorophenyl)-3H-imidazo[4,5-c]pyridin-2-yl]pyrimidin-2-yl}-1-methylpiperazin-2-one], the concentration for half-maximal inhibition (IC50) in assay [1] lay within 0.05 to 0.2 µM.
Same read-out and setting: the result for `NC1CCN(c2ccc(-c3nc4ccncc4n3-c3ccc(Cl)cc3)cn2)CC1` [Example 8, 1-{5-[3-(4-Chlorophenyl)-3H-imidazo[4,5-c]pyridin-2-yl]pyridin-2-yl}piperidin-4-amine] reads < 0.05 µM.
The same measure, in the same setting: with `Cc1nc(N2CCOCC2)ccc1-c1nc2ccncc2n1-c1ccc(F)cc1` [Example 108, 4-{5-[3-(4-Fluorophenyl)-3H-imidazo[4,5-c]pyridin-2-yl]-6-methylpyridin-2-yl}morpholine] the figure was 0.2 to 1.2 µM; with `Fc1cncc(-c2cc3ccncc3n2-c2ccc(Cl)cc2)c1` [Example 148, 3-[1-(4-Chlorophenyl)-1H-pyrrolo[2,3-c]pyridin-2-yl]-5-fluoropyridine], < 0.05 µM.
Same read-out and setting: with `Clc1ccc(-n2c(-c3cnccn3)cc3ccncc32)cc1` [Example 124, 2-[1-(4-Chlorophenyl)-1H-pyrrolo[2,3-c]pyridin-2-yl]pyrazine] the figure was < 0.05 µM.
In the case of `Clc1ccc(-n2c(-c3ccc(-n4cccn4)nc3)cc3ccncc32)cc1` [Example 151, 5-[1-(4-Chlorophenyl)-1H-pyrrolo[2,3-c]pyridin-2-yl]-2-(1H-pyrazol-1-yl)pyridine; bis(trifluoroacetic acid)], the IC50 in assay [1] was 0.05 to 0.2 µM.
On the same count and under the same terms, the result for `Cc1ccc(-n2c(-c3cnc(N4CCOCC4)nc3)nc3ccncc32)nc1` [Example 79, 4-{5-[3-(5-Methylpyridin-2-yl)-3H-imidazo[4,5-c]pyridin-2-yl]pyrimidin-2-yl}morpholine] reads < 0.05 µM; that for `NC(=O)N1CCCN(c2ccc(-c3nc4ccncc4n3-c3ccc(F)cc3)cn2)CC1` [Example 94, 4-{5-[3-(4-Fluorophenyl)-3H-imidazo[4,5-c]pyridin-2-yl]pyridin-2-yl}-1,4-diazepane-1-carboxamide], 0.2 to 1.2 µM.
For `Fc1ccc(-n2c(-c3ccnc(N4CCOCC4)c3)nc3ccncc32)cc1` [Example 73, 4-{4-[3-(4-Fluorophenyl)-3H-imidazo[4,5-c]pyridin-2-yl]pyridin-2-yl}morpholine], in assay [1], the half-maximal inhibitory concentration (IC50) was 0.05 to 0.2 µM.
For `Brc1ccc(-n2c(-c3cnc(N4CCOCC4)nc3)cc3ccncc32)cc1` [Example 133, 4-{5-[1-(4-Bromophenyl)-1H-pyrrolo[2,3-c]pyridin-2-yl]pyrimidin-2-yl}morpholine], in assay [1], the IC50 was < 0.05 µM.
Take `O=c1cc(-c2cc3ccncc3n2-c2ccccc2)ccn1C1CC1` [Example 155, 1-Cyclopropyl-4-{1-phenyl-1H-pyrrolo[2,3-c]pyridin-2-yl}-1,2-dihydropyridin-2-one]: the 50% inhibitory concentration (IC50) in assay [1] was 0.2 to 1.2 µM.
The same measure, in the same setting: with `Nc1ccc(-c2nc3ccncc3n2-c2ccc(Cl)cc2F)cn1` [Example 105, 5-[3-(4-Chloro-2-fluorophenyl)-3H-imidazo[4,5-c]pyridin-2-yl]pyridin-2-amine] the figure was 0.2 to 1.2 µM; with `O=c1cc(-c2nc3ccncc3n2-c2ccc(Cl)cc2F)ccn1C1CC1` [Example 116, 4-[3-(4-Chloro-2-fluorophenyl)-3H-imidazo[4,5-c]pyridin-2-yl]-1-cyclopropyl-1,2-dihydropyridin-2-one], 0.05 to 0.2 µM.
For the compound `Fc1ccc(-n2c(-c3cnc(C4CC4)nc3)nc3ccncc32)cc1` [Example 30, 2-Cyclopropyl-5-[3-(4-fluorophenyl)-3H-imidazo [4,5-c]pyridin-2-yl]pyrimidine], the 50% inhibitory concentration (IC50) in assay [1] fell in the range of 0.2 to 1.2 µM.
For `Fc1ccc(-n2c(-c3ccc(OC4CCOC4)nc3)nc3ccncc32)cc1` (stereo not shown) [Example 112, 5-[3-(4-Fluorophenyl)-3H-imidazo[4,5-c]pyridin-2-yl]-2-(oxolan-3-yloxy)pyridine], in assay [1], the IC50 was < 0.05 µM.
Take `Clc1ccc(-n2c(-c3cnc(N4CCOCC4)cn3)nc3ccncc32)cc1` [Example 5, 4-{5-[3-(4-Chlorophenyl)-3H-imidazo[4,5-c]pyridin-2-yl]pyrazin-2-yl}morpholine]: the IC50 in assay [1] lay within 0.05 to 0.2 µM.
Same read-out and setting: the result for `Cc1nc(N2CCOCC2)ncc1-c1nc2ccncc2n1-c1ccc(Cl)cc1F` [Example 27, 4-{5-[3-(4-Chloro-2-fluorophenyl)-3H-imidazo [4,5-c]pyridin-2-yl]-4-methylpyrimidin-2-yl} morpholine] reads < 0.05 µM; that for `COCCCNc1ncc(-c2nc3ccncc3n2-c2ccc(C)cc2)cn1` [Example 37, N-(3-Methoxypropyl)-5-[3-(4-methylphenyl)-3H-imidazo [4,5-c]pyridin-2-yl]pyrimidin-2-amine], < 0.05 µM.
